Target: T1, human MC5R (hMC5R) (Homo sapiens, UniProt P33032)
T1 construct: purchased Perkin Elmer RBXMC5M400UA
Experiment: Human MC5R radioligand binding assay (membranes, [125I] NDP-MSH displacement)
Conditions: hMC5R binding; tested as trifluoroacetate or hydrochloride salts, or free bases; read-out: MC5R radioligand IC50
In short: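 Displacement of [125I]NDP-MSH (radioiodinated in house, HPLC-purified) from hMC5R membranes by test compound measured after 1 hr incubation at 37° C.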

T1 sequence (P33032 whole entry): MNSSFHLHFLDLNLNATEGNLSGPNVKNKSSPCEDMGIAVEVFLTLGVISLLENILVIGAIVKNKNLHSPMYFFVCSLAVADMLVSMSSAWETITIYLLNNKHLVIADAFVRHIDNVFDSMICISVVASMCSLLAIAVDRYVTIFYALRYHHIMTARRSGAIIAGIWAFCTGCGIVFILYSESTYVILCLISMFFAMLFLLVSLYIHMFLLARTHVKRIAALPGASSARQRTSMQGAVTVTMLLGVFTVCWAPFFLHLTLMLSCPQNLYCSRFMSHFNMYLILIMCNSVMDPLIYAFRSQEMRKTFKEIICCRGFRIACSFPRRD

Question: For O=C(/C=C/c1ccc(Br)cc1)NC[C@@H]1CCN(CC(c2ccccc2)c2ccccc2)C(=O)[C@H](CCN2CCCCC2)N1 [Compound 413, (E)-3-(4-bromophenyl)-N-(((3S,5S)-1-(2,2-diphenylethyl)-2-oxo-3-(2-(piperidin-1-yl)ethyl)-1,4-diazepan-5-yl)methyl)acrylamide], which IC50 is on record?
Answer: Its IC50 is under 0.01 µM.

Question: How did the IC50 turn out when N=C(N)NCCC[C@@H]1N[C@H](CNC(=O)c2cc3ccccc3s2)CCN(CC(c2ccccc2)c2ccccc2)C1=O [Compound 135, N-(((3S,5S)-1-(2,2-diphenylethyl)-3-(3-guanidinopropyl)-2-oxo-1,4-diazepan-5-yl)methyl)benzo[b]thiophene-2-carboxamide] was run?
Answer: Its IC50 is under 1 µM.

Question: Which IC50 does the source give for N=C(N)NCCC[C@@H]1N[C@H](CNC(=O)c2cnc3ccccc3c2)CCN(CC2CCCCC2)C1=O [Compound 482, N-(((3S,5S)-1-(cyclohexylmethyl)-3-(3-guanidinopropyl)-2-oxo-1,4-diazepan-5-yl)methyl)quinoline-3-carboxamide] here?
Answer: Its IC50 is under 1 µM.

Question: Which IC50 does the source give for Cc1ccc(/C=C/C(=O)NC[C@@H]2CCN(CC(c3ccccc3)c3ccccc3)C(=O)[C@H](CCN3CCCCC3)N2)c(C)c1 [Compound 398, (E)-3-(2,4-dimethylphenyl)-N-(((3S,5S)-1-(2,2-diphenylethyl)-2-oxo-3-(2-(piperidin-1-yl)ethyl)-1,4-diazepan-5-yl)methyl)acrylamide] here?
Answer: The IC50 was under 0.1 µM.

Question: With Cc1ccc(S(=O)(=O)NCC[C@@H]2N[C@H](CNC(=O)c3ccc(Cl)c(Cl)c3)CCN(Cc3ccc(Cl)cc3Cl)C2=O)cc1 [Compound 505, 3,4-dichloro-N-(((3S,5S)-1-(2,4-dichlorobenzyl)-3-(2-(4-methylphenylsulfonamido)ethyl)-2-oxo-1,4-diazepan-5-yl)methyl)benzamide] as the compound, how does the IC50 read?
Answer: Its IC50 is under 10 µM.

Question: For NCC[C@@H]1N[C@H](CNC(=O)c2ccc(C(F)(F)F)cc2)CCN(CC(c2ccccc2)c2ccccc2)C1=O [Compound 435, N-(((3S,5S)-3-(2-aminoethyl)-1-(2,2-diphenylethyl)-2-oxo-1,4-diazepan-5-yl)methyl)-4-(trifluoromethyl)benzamide], which IC50 is on record?
Answer: The IC50 was under 10 µM.

Question: With CC(C)NCCCC[C@@H]1N[C@H](CNC(=O)c2ccc3ccccc3c2)CCN(CC(c2ccccc2)c2ccccc2)C1=O [Compound 229, N-(((3S,5S)-1-(2,2-diphenylethyl)-3-(4-(isopropylamino)butyl)-2-oxo-1,4-diazepan-5-yl)methyl)-2-naphthamide] as the compound, how does the IC50 read?
Answer: Its IC50 is under 0.1 µM.

Question: Which IC50 does the source give for CC(C)NCC[C@@H]1N[C@H](CNC(=O)c2ccc3cc(Cl)ccc3c2)CCN(Cc2cc(Cl)cc(Cl)c2)C1=O [Compound 438, 6-chloro-N-(((3S,5S)-1-(3,5-dichlorobenzyl)-3-(2-(isopropylamino)ethyl)-2-oxo-1,4-diazepan-5-yl)methyl)-2-naphthamide] here?
Answer: The IC50 was under 0.01 µM.

Question: For NCCC[C@@H]1N[C@H](CNC(=O)c2ccc(-c3ccccc3)cc2)CCN(CC(c2ccccc2)c2ccccc2)C1=O [Compound 106, N-(((3S,5S)-3-(3-aminopropyl)-1-(2,2-diphenylethyl)-2-oxo-1,4-diazepan-5-yl)methyl)biphenyl-4-carboxamide], which IC50 is on record?
Answer: The IC50 was under 1 µM.

Question: How did the IC50 turn out when CC(CN1CC[C@@H](CNC(=O)c2ccc3ccccc3c2)N[C@@H](CCN)C1=O)c1ccc(Cl)cc1 (stereo partly drawn) [Compound 422, N-(((3S,5S)-3-(2-aminoethyl)-1-(2-(4-chlorophenyl)propyl)-2-oxo-1,4-diazepan-5-yl)methyl)-2-naphthamide] was run?
Answer: Its IC50 is under 10 µM.

Question: NCC[C@@H]1N[C@H](CNC(=O)C=Cc2ccccc2)CCN(CC(c2ccccc2)c2ccccc2)C1=O [Compound 279, N-(((3S,5S)-3-(2-aminoethyl)-1-(2,2-diphenylethyl)-2-oxo-1,4-diazepan-5-yl)methyl)cinnamamide] was tested. Which IC50 did it give?
Answer: Its IC50 is under 1 µM.

Question: With CC[C@H](CN1CC[C@@H](CNC(=O)c2ccc3cc(Cl)ccc3c2)N[C@@H](CCN)C1=O)C(C)C [Compound 470, N-(((3S,5S)-3-(2-aminoethyl)-1-((S)-2-ethyl-3-methylbutyl)-2-oxo-1,4-diazepan-5-yl)methyl)-6-chloro-2-naphthamide] as the compound, how does the IC50 read?
Answer: The IC50 was under 1 µM.
